From BindingDB's records for patent US9457039 (Merck Sharp & Dohme Corp, 2016)

Target: T1, Genome polyprotein [2420-3010] (HCV, UniProt P26663)
T1 construct: 2420-3010
Test: Inhibition Assay
Settings: pH 7.3; 25 °C
Protocol: To measure inhibition of the enzymatic activity of the HCV NS5B RNA-dependent RNA polymerase by the nucleoside triphosphate compounds of the present invention, a radiolabeled nucleotide incorporation assay was used. […] The assay was then terminated by the addition of 500 mM EDTA (50 μL). The reaction mixture was transferred to a Millipore DE81 filter plate and the incorporation of labeled CTP is determined using Packard TopCount.

T1 sequence (P26663 2420-3010): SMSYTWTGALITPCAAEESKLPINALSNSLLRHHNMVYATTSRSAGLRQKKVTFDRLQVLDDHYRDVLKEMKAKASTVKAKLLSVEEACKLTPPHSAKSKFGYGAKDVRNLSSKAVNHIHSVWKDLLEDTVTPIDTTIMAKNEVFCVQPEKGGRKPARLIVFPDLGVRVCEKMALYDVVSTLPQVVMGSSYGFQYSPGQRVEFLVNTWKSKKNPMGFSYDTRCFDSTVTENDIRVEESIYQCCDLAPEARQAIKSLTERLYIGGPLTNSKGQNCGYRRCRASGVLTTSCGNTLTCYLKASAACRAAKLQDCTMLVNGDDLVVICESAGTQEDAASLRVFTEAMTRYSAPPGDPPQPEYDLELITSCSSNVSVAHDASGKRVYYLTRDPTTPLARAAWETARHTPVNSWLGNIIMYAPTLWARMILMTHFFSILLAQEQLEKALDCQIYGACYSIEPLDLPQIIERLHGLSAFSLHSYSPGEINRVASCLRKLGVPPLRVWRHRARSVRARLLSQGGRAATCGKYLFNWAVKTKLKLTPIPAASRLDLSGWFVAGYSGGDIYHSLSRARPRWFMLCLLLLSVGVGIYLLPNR

Compound	IC50
C[C@@]1(N=[N+]=[N-])[C@H](O)[C@@H](COP(=O)(O)OP(=O)(O)OP(=O)(O)O)O[C@H]1c1cnc2c(N)ncnn12 [US9457039, 22]	0.93 µM
C[C@@]1(N)[C@H](O)[C@@H](COP(=O)(O)OP(=O)(O)OP(=O)(O)O)O[C@H]1c1cnc2c(N)ncnn12 [US9457039, 23]	6.7 µM
C[C@@]1(N)[C@H](O)[C@@H](COP(=O)(O)OP(=O)(O)OP(=O)(O)O)O[C@H]1c1ccc2c(N)ncnn12 [US9457039, 24]	1.1 µM
C[C@@]1(N)[C@H](O)[C@@H](COP(=O)(O)OP(=O)(O)OP(=O)(O)O)O[C@H]1c1cnn2c(N)ncnc12 [US9457039, 25]	51 µM
